Laboratory results: patent US9586951B2 (FUJIFILM Corporation, priority 2013, dated 2017)

How the values were obtained:
[1] = target: T1, ATM (Homo sapiens, UniProt Q13315); test: ATM inhibition test (phosphorylation of Chk2 generated by ionizing radiation, AlphaScreen SureFire); assay type: cell-based; settings: phosphorylated Chk2 in NCI-H460 cells, ionizing radiation 8Gy, 1 hour after test compound treatment; read-out: ATM inhibitory activity
T1 construct: detecting phosphorylation of Chk2 in a human non-small cell lung cancer cell line NCI-H460 (ATCC company); host or cells: NCI-H460 human non-small cell lung cancer cells
Method in brief: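 Human NCI-H460 lung cancer cells were treated with compound for 1 h, then irradiated at 8Gy and incubated 1 h at 37° C. Phospho-Chk2 was quantified by AlphaScreen SureFire; inhibition % was normalised between irradiated untreated and non-irradiated untreated wells.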

[2] = system: human non-small cell lung cancer cell line NCI-H460; test: Cell proliferation inhibition test by sensitivity-enhancing to ionizing radiation (Cell Titer Glo); assay type: cell-based; settings: concentration in which SER became 2, NCI-H460 cells, ionizing radiation 2 Gy, cultured 120 hour
Method in brief: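 Cells seeded at 2×10^3 cells/mL in RPMI-1640 with 10% FBS; after 24 h, compound added (0.1% DMSO), and 30 min later half the plates irradiated at 2 Gy. After 120 hour at 37° C, viability by Cell Titer Glo luminescence; SER2 is the concentration giving SER of 2 by sigmoidal fit.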

T1 sequence (Q13315 whole entry): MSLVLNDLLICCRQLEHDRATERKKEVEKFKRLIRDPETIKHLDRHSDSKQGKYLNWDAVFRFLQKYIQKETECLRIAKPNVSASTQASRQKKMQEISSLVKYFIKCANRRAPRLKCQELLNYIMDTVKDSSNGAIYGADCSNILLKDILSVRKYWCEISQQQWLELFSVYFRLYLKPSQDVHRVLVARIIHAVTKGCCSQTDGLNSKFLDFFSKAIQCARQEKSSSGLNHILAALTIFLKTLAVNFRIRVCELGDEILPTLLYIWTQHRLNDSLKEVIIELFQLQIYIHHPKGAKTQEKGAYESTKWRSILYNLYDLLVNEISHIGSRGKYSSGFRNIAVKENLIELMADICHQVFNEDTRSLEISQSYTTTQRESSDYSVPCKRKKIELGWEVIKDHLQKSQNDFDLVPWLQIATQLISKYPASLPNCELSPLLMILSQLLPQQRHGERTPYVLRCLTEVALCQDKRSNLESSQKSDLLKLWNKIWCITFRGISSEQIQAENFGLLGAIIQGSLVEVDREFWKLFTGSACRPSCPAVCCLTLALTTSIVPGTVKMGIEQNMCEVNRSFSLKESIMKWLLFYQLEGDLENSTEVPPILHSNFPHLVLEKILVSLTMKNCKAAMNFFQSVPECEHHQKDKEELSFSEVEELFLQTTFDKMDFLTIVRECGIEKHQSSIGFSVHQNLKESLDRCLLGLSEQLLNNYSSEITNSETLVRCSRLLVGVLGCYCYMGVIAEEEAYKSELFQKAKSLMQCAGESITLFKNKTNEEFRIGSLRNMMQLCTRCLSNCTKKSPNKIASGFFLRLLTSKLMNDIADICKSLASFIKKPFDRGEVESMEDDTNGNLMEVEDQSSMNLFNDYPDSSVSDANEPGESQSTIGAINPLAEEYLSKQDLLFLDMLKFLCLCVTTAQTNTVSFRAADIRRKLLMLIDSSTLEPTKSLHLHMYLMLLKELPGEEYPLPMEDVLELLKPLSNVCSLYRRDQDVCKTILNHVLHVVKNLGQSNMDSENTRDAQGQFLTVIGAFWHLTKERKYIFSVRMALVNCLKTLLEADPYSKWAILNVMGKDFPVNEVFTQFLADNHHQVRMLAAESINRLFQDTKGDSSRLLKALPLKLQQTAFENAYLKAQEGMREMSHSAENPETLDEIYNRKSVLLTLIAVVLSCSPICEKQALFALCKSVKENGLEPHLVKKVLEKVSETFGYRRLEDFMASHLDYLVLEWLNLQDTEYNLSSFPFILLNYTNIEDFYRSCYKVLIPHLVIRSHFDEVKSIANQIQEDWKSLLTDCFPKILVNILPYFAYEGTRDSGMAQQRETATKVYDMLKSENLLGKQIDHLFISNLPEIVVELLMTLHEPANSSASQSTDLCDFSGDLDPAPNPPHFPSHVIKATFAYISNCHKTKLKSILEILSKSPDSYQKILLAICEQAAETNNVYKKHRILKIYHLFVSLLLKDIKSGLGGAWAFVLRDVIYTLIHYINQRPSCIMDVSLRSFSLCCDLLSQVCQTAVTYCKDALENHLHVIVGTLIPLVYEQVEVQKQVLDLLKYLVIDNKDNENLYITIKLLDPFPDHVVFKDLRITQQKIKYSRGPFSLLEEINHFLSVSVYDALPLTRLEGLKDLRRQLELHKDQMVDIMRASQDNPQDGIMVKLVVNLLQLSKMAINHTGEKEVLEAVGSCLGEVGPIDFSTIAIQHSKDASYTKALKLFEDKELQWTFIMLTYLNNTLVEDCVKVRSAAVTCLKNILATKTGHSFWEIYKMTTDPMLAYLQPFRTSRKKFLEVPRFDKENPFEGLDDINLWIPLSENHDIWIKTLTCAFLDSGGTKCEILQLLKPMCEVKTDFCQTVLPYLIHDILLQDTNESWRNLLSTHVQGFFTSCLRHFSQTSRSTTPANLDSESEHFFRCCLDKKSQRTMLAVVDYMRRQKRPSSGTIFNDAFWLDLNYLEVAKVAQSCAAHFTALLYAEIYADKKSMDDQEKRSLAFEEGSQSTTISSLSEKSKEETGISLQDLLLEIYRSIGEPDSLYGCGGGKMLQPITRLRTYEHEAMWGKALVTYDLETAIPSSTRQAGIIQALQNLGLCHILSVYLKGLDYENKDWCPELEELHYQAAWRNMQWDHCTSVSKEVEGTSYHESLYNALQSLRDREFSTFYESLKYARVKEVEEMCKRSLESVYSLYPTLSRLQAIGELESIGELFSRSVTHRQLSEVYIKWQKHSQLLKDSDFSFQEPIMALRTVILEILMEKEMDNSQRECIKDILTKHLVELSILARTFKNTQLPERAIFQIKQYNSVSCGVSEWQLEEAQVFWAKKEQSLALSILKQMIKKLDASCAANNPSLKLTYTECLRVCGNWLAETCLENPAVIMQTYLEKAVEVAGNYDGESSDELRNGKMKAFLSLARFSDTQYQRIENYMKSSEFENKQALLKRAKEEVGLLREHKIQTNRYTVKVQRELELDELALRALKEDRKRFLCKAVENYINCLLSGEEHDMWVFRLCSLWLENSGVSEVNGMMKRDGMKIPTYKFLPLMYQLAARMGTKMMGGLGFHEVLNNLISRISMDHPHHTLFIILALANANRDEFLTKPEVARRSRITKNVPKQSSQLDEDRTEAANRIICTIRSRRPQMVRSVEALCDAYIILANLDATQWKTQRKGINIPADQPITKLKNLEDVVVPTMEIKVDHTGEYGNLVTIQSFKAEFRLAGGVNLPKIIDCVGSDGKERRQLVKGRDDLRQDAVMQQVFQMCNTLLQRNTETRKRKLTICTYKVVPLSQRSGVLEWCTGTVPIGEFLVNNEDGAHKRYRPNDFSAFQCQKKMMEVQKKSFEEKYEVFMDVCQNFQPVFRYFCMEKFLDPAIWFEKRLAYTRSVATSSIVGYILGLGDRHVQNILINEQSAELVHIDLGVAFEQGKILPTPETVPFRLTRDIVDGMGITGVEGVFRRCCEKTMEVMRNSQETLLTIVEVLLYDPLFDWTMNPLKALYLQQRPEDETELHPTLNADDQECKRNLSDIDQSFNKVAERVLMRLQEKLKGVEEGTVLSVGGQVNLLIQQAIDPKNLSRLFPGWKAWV

| Compound | IC50 [1] | SER2 (concentration at which the radiation sensitivity-enhancement ratio reaches 2) ([2]; Homo sapiens, NCI-H460, 120 h) | SER2 (concentration at which the radiation sensitivity-enhancement ratio reaches 2) [2] |
| --- | --- | --- | --- |
| CNc1ccc(CNc2ccc3c(c2)Cc2cccc(-c4cc(N5CCOCC5)cc(=O)[nH]4)c2O3)cn1 [Example 2-2-7, 6-(7-(((6-(Methylamino)pyridin-3-yl)methyl)amino)-9H-xanthen-4-yl)-4-morpholino pyridin-2 (1H)-one] | 100 to 500 nM | 100 to 500 nM |  |
| Cc1ccc(C(Nc2ccc3c(c2)Sc2cccc(-c4cc(N5CCOCC5)cc(=O)[nH]4)c2S3)[C@H]2CN(C(=O)CN(C)C)CCO2)nc1 (single isomer, unassigned) [Example 10-1] | 100 to 500 nM | < 100 nM |  |
| CC(CN1CCCCC1)Nc1ccc2c(c1)Sc1cccc(-c3cc(N4CCOCC4)cc(=O)[nH]3)c1S2 (stereo not drawn) [Example 1-13-4] | < 100 nM | 100 to 500 nM |  |
| Cc1cnc(C(CCN(C)C)Nc2ccc3c(c2)Sc2cccc(-c4cc(N5CCOCC5)cc(=O)[nH]4)c2S3)cn1 (single isomer, unassigned) [Example 1-22-12-1, 6-(7-((3-(dimethylamino)-1-(5-methylpyrazin-2-yl)propyl)amino)thianthren-1-yl)-4-morpholinopyridin-2(1H)-one] | < 100 nM | 100 to 500 nM |  |
| Cc1ccnc(C(C)Nc2ccc3c(c2)Cc2cccc(-c4cc(N5CCOCC5)cc(=O)[nH]4)c2O3)c1 (stereo not drawn) [Example 2-14-19, 6-(7-((1-(4-Methylpyridin-2-yl)ethyl)amino)-9H-xanthen-4-yl)-4-morpholino pyridin-2(1H)-one] | 100 to 500 nM | 100 to 500 nM |  |
| COC(=O)C(Nc1ccc2c(c1)Sc1cccc(-c3cc(N4CCOCC4)cc(=O)[nH]3)c1S2)c1cccc(C)n1 (stereo not drawn) [Example 1-12-107, Methyl 2-(6-methylpyridin 2-yl)-2-((6-(4-morpholino-6-oxo-1,6-dihydropyridin-2 yl)thianthren-2-yl)amino) acetate] | < 100 nM | 100 to 500 nM |  |
| COc1ncc(CNc2ccc3c(c2)Sc2cccc(-c4cc(N5CCOCC5)cc(=O)[nH]4)c2O3)cn1 [Example 4-4-4, 6-(8-(((2-Methoxypyrimidin-5-yl)methyl)amino)phenoxathiin-4-yl)-4-morpholino pyridin-2 (1H)-one] | < 100 nM | 500 to 2000 nM |  |
| COc1ncc(CNc2ccc3c(c2)Cc2cccc(-c4cc(N5CCOCC5)cc(=O)[nH]4)c2O3)cn1 [Example 2-2-14, 6-(7-(((2-Methoxypyrimidin-5-yl)methyl)amino)-9H-xanthen-4-yl)-4-morpholino pyridin-2(1H)-one] | < 100 nM | 100 to 500 nM |  |
| CN(C)c1ncc(CNc2ccc3c(c2)Sc2cccc(-c4cc(N5CCOCC5)cc(=O)[nH]4)c2S3)cn1 [Example 1-12-11, 6-(7-(((2-(Dimethylamino)pyrimidin-5-yl)methyl)amino)thianthren-1-yl)-4-morpholino pyridin-2(1H)-one] | < 100 nM | 100 to 500 nM |  |
| CC(Nc1ccc2c(c1)Sc1cccc(-c3cc(N4CCOCC4)cc(=O)[nH]3)c1S2)c1nccc(C(F)F)n1 (stereo not drawn) [Example 1-12-87, 6-(7-((1-(4-(Difluoromethyl)pyrimidin-2-yl)ethyl)amino)thianthren-1-yl)-4-morpholino pyridin-2(1H)-one] | < 100 nM | 100 to 500 nM |  |
| Cc1cc(C(C)Nc2ccc3c(c2)Sc2cccc(-c4cc(N5CCOCC5)cc(=O)[nH]4)c2S3)ncn1 (stereo not drawn) [Example 1-12-75, 6-(7-((1-(6-Methylpyrimidin-4-yl)ethyl)amino)thianthren-1-yl)-4-morpholino pyridin-2 (1H)-one] | < 100 nM | 100 to 500 nM |  |

Second part, led by results:

| IC50 [1] | Compound | SER2 (concentration at which the radiation sensitivity-enhancement ratio reaches 2) ([2]; Homo sapiens, NCI-H460, 120 h) | SER2 (concentration at which the radiation sensitivity-enhancement ratio reaches 2) [2] |
| --- | --- | --- | --- |
| < 100 nM | CNc1ccc(CNc2ccc3c(c2)Sc2cccc(-c4cc(N5CCOCC5)cc(=O)[nH]4)c2O3)cn1 [Example 4-4-6, 6-(8-(((6-(Methylamino)pyridin-3-yl)methyl)amino)phenoxathiin-4-yl)-4-morpholino pyridin-2(1H)-one] | 500 to 2000 nM |  |
| < 100 nM | CN1CCN(CCNc2ccc3c(c2)Sc2cccc(-c4cc(N5CCOCC5)cc(=O)[nH]4)c2S3)CC1 [Example 1-10-9, 6-(7-((2-(4-Methylpiperazin-1-yl)ethyl)amino)thianthren-1-yl)-4-morpholino pyridin-2(1H)-one] | 100 to 500 nM |  |
| < 100 nM | N#Cc1cccc(CNc2ccc3c(c2)Sc2cccc(-c4cc(N5CCOCC5)cc(=O)[nH]4)c2O3)n1 [Example 4-4-25, 6-(((6-(4-Morpholino-6-oxo-1,6-dihydropyridin-2-yl)phenoxathiin-2-yl)amino)methyl)picolinonitrile] | 500 to 2000 nM |  |
| < 100 nM | Cc1ccnc(C(CO)Nc2ccc3c(c2)Sc2cccc(-c4cc(N5CCOCC5)cc(=O)[nH]4)c2S3)c1 (single isomer, unassigned) [Example 1-12-138-2, 6-(7-((2-hydroxy-1-(4-methylpyridin-2-yl)ethyl)amino)thianthren-1-yl)-4-morpholinopyridin-2(1H)-one] | < 100 nM |  |
| < 100 nM | Cc1ccc(C(C)Nc2ccc3c(c2)Sc2cccc(-c4cc(N5CCOCC5)cc(=O)[nH]4)c2S3)nc1 (stereo not drawn) [Example 1-12-113, 6-(7-((1-(5-Methylpyridin-2-yl)ethyl)amino)thianthren-1-yl)-4-morpholino pyridin-2(1H)-one] | 100 to 500 nM |  |
| < 100 nM | CNc1ncc(CNc2ccc3c(c2)Sc2cccc(-c4cc(N5CCOCC5)cc(=O)[nH]4)c2O3)cn1 [Example 4-4-13, 6-(8-(((2-(Methylamino)pyrimidin-5-yl)methyl)amino)phenoxathiin-4-yl)-4-morpholino pyridin-2(1H)-one] | 100 to 500 nM |  |
| < 100 nM | Cc1cc(CNc2ccc3c(c2)Cc2cccc(-c4cc(N5CCOCC5)cc(=O)[nH]4)c2O3)ccn1 [Example 2-2-20, 6-(7-(((2-Methylpyridin-4-yl)methyl)amino)-9H-xanthen-4-yl)-4-morpholino pyridin-2(1H)-one] | 500 to 2000 nM |  |
| < 100 nM | O=c1cc(N2CCOCC2)cc(-c2cccc3c2Oc2ccc(NCc4cncc(F)c4)cc2S3)[nH]1 [Example 4-8-12, 6-(8-(((5-Fluoropyridin-3-yl)methyl)amino)phenoxathiin-4-yl)-4-morpholino pyridin-2(1H)-one] | 100 to 500 nM |  |
| < 100 nM | COc1ccc(CNc2ccc3c(c2)Sc2cccc(-c4cc(N5CCOCC5)cc(=O)[nH]4)c2O3)nc1 [Example 4-8-17, 6-(8-(((5-Methoxypyridin-2-yl)methyl)amino)phenoxathiin-4-yl)-4-morpholino pyridin-2(1H)-one] | 100 to 500 nM |  |
| < 100 nM | Nc1ccc2c(c1)Sc1cccc(-c3cc(N4CCOCC4)cc(=O)[nH]3)c1S2 [Example 1-1, 6-(7-aminothianthren-1-yl)-4-morpholinopyridin-2(1H)-one] | 500 to 2000 nM |  |
| < 100 nM | O=c1cc(N2CCOCC2)cc(-c2cccc3c2Oc2ccc(NCc4cncc(C5C=CCC5)c4)cc2C3)[nH]1 (stereo not drawn) [Example 2-2-60, 6-(7-(((5-(Cyclopent-2-en-1-yl)pyridin-3-yl)methyl)amino)-9H-xanthen-4-yl)-4-morpholino pyridin-2(1H)-one] | 500 to 2000 nM |  |
| < 100 nM | Cc1cccc(C(C)Nc2ccc3c(c2)Sc2cccc(-c4cc(N5CCOCC5)cc(=O)[nH]4)c2S3)n1 (single isomer, unassigned) [Example 1-12-136-2, 6-(7-((1-(6-methylpyridin-2-yl)ethyl)amino)thianthren-1-yl)-4-morpholinopyridin-2(1H)-one] |  | 100 to 500 nM |
| < 100 nM | Cc1cccc(CNc2ccc3c(c2)Sc2cccc(-c4cc(N5CCOCC5)cc(=O)[nH]4)c2S3)n1 [Example 1-12-2, 6-(7-(((6-Methylpyridin-2-yl)methyl)amino)thianthren-1-yl)-4-1-morpholino pyridin-2 (1H)-one] | < 100 nM |  |
| < 100 nM | COc1cncc(C(C)Nc2ccc3c(c2)Sc2cccc(-c4cc(N5CCOCC5)cc(=O)[nH]4)c2S3)c1 (single isomer, unassigned) [Example 1-12-145-1, 6-(7-((1-(5-methoxypyridin-3-yl)ethyl)amino)thianthren-1-yl)-4-morpholinopyridin-2(1H)-one] | 100 to 500 nM |  |
| < 100 nM | O=c1cc(N2CCOCC2)cc(-c2cccc3c2Oc2ccc(NCc4ccc(F)nc4)cc2C3)[nH]1 [Example 2-2-11, 6-(7-(((6-Fluoropyridin-3-yl)methyl)amino)-9H-xanthen-4-yl)-4-morpholino pyridin-2 (1H)-one] | 100 to 500 nM |  |
| < 100 nM | COCCOCC(Nc1ccc2c(c1)Sc1cccc(-c3cc(N4CCOCC4)cc(=O)[nH]3)c1S2)c1ccc(C)cn1 (stereo not drawn) [Example 1-12-102, 6-(7-((2-(2-Methoxyethoxy)-1-(5-methylpyridin-2-yl)ethyl)amino)thianthren-1-yl)-4-morpholino pyridin-2(1H)-one] | 100 to 500 nM |  |
